Remaining binding data for three molecules are collected here from patent US10870647B2, “Imidazopyridine derivative, method for preparing same, and pharmaceutical composition containing same as active ingredient for preventing or treating cancer” (DAEGU-GYEONGBUK MEDICAL INNOVATION FOUNDATION, priority 2016, dated 2020).

Test in all cases: Kinase selectivity, scanMAX Kinase assay panel (DiscoverX), % control at 1 uM
Common to all, as to type: binding

Test [1] deals with T1, scanMAX Kinase assay panel (Homo sapiens, UniProt P04626).
T1 construct: purchased DiscoverX
The note with it: ERBB2; 1 uM; read-out: Percent Control (%). In short, it runs like this:
(§1)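 Binding across the scanMAX kinase panel was tested at 1 uM compound. % control = (compound − positive control)/(negative control − positive control) × 100; below 35 counted as active.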

Test [2] concerns the target T2, scanMAX Kinase assay panel (Homo sapiens, UniProt P51813).
T2 construct: purchased DiscoverX
T2 sequence (P51813 1-675): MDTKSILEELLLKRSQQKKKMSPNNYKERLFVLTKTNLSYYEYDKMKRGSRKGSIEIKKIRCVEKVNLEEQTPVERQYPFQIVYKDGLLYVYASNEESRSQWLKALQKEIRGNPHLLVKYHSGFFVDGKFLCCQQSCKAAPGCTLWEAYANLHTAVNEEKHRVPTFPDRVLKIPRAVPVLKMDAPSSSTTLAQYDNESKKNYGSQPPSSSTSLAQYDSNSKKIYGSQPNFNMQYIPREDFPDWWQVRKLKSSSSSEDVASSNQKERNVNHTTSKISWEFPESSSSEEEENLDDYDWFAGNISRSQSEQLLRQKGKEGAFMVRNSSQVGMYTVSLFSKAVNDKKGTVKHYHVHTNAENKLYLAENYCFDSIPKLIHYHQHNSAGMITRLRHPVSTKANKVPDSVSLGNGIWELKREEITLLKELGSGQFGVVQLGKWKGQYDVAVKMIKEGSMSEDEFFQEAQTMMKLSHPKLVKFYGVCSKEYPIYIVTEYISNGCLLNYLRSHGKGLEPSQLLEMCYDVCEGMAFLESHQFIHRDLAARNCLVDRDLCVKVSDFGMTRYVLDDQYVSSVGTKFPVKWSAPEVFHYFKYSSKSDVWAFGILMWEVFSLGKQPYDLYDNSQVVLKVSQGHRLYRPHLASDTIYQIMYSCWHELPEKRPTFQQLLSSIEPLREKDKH
The note with it: BMX; 1 uM; read-out: Percent Control (%). In short, it runs like this:
as §1

The target of test [3] is T3, scanMAX Kinase assay panel (Homo sapiens, UniProt P41743).
T3 construct: purchased DiscoverX
T3 sequence (P41743 1-596): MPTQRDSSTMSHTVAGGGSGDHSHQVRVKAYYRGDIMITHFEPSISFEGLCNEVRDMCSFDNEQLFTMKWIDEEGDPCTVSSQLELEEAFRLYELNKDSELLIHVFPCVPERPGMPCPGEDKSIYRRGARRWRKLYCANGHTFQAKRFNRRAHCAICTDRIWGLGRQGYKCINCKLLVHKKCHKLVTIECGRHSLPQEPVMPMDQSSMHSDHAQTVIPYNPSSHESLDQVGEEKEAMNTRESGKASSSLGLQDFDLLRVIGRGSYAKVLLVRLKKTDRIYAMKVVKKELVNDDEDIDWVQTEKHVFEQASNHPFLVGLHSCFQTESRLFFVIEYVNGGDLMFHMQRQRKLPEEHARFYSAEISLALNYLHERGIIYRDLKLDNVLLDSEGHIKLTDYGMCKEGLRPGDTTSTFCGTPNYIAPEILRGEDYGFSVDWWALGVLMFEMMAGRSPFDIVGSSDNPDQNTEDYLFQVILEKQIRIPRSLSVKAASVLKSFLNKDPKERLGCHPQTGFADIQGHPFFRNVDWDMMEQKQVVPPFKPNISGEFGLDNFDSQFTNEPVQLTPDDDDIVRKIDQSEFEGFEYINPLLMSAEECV
The settings on record: PRKCI; 1 uM; read-out: Percent Control (%). In short, it runs like this:
as §1

Test [4] concerns the target T4, scanMAX Kinase assay panel (Homo sapiens, UniProt Q8IVH8).
T4 construct: purchased DiscoverX
T4 sequence (Q8IVH8 1-894): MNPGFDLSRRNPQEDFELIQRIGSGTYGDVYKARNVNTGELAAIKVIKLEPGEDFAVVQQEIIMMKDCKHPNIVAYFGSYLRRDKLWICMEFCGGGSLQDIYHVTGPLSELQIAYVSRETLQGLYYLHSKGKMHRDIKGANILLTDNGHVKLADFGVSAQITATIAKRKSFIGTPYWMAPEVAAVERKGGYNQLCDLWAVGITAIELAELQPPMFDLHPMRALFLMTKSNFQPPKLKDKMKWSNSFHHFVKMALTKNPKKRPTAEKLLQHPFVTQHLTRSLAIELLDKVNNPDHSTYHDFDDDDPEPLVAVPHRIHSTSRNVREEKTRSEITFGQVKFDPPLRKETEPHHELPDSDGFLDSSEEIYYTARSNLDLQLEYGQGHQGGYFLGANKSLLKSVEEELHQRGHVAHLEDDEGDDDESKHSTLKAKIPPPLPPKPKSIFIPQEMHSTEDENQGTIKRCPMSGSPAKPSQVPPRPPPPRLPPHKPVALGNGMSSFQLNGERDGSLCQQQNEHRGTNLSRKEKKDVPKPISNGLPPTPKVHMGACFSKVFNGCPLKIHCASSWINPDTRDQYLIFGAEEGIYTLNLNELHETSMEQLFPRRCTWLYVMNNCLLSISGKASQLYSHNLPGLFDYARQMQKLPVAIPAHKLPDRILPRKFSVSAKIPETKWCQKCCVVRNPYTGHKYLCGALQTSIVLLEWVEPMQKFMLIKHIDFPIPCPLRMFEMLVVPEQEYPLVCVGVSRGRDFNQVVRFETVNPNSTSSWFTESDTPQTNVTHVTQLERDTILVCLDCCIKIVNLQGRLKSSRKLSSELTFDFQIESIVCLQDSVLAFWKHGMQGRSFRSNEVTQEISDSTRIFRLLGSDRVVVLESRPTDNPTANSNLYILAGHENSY
The note with it: MAP4K3; 1 uM; read-out: Percent Control (%). In outline: as §1

Test [5] has as its target T5, scanMAX Kinase assay panel (Homo sapiens, UniProt P07948).
T5 construct: purchased DiscoverX
The note with it: LYN; 1 uM; read-out: Percent Control (%). In outline: as §1

T1 sequence (P04626 23-1255): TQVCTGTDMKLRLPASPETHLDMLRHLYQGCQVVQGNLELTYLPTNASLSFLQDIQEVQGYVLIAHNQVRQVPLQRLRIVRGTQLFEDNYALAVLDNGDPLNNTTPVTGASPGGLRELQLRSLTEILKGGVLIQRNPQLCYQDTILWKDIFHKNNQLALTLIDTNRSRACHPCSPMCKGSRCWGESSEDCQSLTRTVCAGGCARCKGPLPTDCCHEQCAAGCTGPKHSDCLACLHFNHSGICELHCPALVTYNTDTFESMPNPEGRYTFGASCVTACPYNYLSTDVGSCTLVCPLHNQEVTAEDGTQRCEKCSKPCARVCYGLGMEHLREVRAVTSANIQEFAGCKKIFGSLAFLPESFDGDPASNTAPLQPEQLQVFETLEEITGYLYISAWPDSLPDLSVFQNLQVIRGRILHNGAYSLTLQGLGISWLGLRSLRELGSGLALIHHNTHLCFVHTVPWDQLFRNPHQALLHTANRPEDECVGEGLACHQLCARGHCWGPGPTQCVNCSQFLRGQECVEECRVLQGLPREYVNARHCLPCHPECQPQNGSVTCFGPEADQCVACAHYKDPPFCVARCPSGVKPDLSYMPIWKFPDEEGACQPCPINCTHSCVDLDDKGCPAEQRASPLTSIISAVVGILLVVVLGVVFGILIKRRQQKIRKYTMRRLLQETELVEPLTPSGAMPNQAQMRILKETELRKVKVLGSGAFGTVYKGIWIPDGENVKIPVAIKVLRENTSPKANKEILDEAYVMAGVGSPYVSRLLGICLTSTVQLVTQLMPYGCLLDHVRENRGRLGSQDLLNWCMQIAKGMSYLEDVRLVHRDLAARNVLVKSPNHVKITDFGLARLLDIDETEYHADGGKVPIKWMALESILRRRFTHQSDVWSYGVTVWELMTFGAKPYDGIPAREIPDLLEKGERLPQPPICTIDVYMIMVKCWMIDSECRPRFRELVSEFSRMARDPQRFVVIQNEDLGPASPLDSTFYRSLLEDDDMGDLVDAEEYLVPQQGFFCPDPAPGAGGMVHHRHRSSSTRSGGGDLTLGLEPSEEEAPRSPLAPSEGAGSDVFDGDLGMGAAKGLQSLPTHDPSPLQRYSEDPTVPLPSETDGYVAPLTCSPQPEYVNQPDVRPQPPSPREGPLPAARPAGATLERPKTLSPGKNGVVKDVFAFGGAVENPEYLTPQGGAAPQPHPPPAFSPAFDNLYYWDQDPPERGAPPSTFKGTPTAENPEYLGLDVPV
T5 sequence (P07948 whole entry): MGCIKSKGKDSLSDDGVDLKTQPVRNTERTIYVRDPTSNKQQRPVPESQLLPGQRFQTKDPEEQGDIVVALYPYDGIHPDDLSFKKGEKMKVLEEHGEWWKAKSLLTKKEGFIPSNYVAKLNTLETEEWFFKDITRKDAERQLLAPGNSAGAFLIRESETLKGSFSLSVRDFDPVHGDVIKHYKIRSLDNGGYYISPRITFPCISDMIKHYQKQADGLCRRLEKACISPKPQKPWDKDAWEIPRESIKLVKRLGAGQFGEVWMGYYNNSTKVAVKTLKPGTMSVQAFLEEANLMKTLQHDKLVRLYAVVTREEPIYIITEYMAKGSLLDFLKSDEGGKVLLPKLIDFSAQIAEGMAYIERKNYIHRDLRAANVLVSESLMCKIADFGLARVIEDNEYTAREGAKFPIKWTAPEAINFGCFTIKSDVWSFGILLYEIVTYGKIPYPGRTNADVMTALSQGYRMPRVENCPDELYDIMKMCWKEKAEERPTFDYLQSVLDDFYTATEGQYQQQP

On to `Cc1ccc(C(=O)Nc2ccc(CN3CCN(C)CC3)c(C(F)(F)F)c2)cc1C#Cc1cnc2c(Nc3cnn(C)c3)cccn12` [Example 1, 4-methyl-3-((8-((1-methyl-1H-pyrazol-4-yl)amino)imidazo[1,2-a]pyridin-3-yl)ethynyl)-N-(4-((4-methylpiperazin-1-yl)methyl)-3-(trifluoromethyl)phenyl)benzamide], for which the remaining binding at 1 µM in test [1] worked out at 1%; in test [2], 3%; in test [3] it was 51%; in test [4], 25%; in test [5], 0%.
Take `Cc1cn(-c2cc(NC(=O)c3ccc(C)c(C#Cc4cnc5c(Nc6cnn(C)c6)cccn45)c3)cc(C(F)(F)F)c2)cn1` [Example 12, 4-methyl-N-(3-(4-methyl-1H-imidazol-1-yl)-5-(trifluoromethyl)phenyl)-3-((8-((1-methyl-1H-pyrazol-4-yl)amino)imidazo[1,2-a]pyridin-3-yl)ethynyl)benzamide]: the remaining binding at 1 µM turned out to be 68% in test [1]; 9% in test [2]; 66% in test [3]; 66% in test [4]; 3% in test [5].
As to `Cc1ccc(NC(=O)C2(C(=O)Nc3ccc(F)cc3)CC2)cc1C#Cc1cnc2c(Nc3cnn(C(C)C)c3)cccn12` [Example 78], the remaining binding at 1 µM came out at 81% in test [1]; 96% in test [2]; 69% in test [3]; 100% in test [4]; 84% in test [5].
